In brackets after ≈: the same amount, converted by molar mass. Where two headings read alike, the source gives them in different places.
How the values were obtained:
[1] = system: S. aureus vancomycin-intermediates (VISA) Met-R strains; assay: MIC determination (NCCLS broth microdilution), VISA Met-R strains; type: cell-based, Staphylococcus aureus; settings: for MIC: antibiotype Oxa, Cip, Clin, Ery
Method: (§1) The MICs of thiamphenicol and of other antibiotics was obtained by using the method proposed by NCCLS (National Committee for Clinical Laboratory Standards, 1999).
(§2) Various antibiotic concentrations were added to bacteria in exponental growth (final inoculum 5×10^5 […]); dilution in Mb (cation-supplemented Mueller-Hinton broth) and distribution on a microplate by using an automatic diluting machine Biomek 1000 (Beckman, USA). MHb charged with 2% NaCl was used to test the methicillin activity.
(§3) The antibiotic concentration which hinders a visible growth after 18-24 hours of incubation at 37° C., was registered as MIC.
(§4) S. aureus ATCC 29213 was used as quality control strain.

[2] = system: S. aureus Met-R multiresistant strains; assay: MIC determination (NCCLS broth microdilution), methicillin-resistant multiresistant S. aureus strains; type: cell-based, Staphylococcus aureus; settings: for MIC / MIC50 / MIC90: Staphylococcus aureus; for MIC: antibiotype Oxa, Ery, read-out: MIC; for MIC50: read-out: MIC 50%; for MIC90: read-out: MIC 90%
Method: as §1, §2, §3, §4

[3] = Staphylococcus aureus, Strain 51 VISA, read-out: MIC
[4] = Strain 30, Cip, Clin, Gm, SXT, Dox
[5] = Strain 32, Cip, Clin, Gm, SXT, Rif
[6] = Strain 44, Cip, Clin, Gm, Rif, Dox
[7] = Strain 45, Cip, Clin, Gm, Rif, Dox, Fos
[8] = Strain 50, Cip, Clin, Gm, Rif, Dox

Structure (SMILES): O=C(N[C@H](CO)[C@H](O)c1ccc([N+](=O)[O-])cc1)C(Cl)Cl [Cloramphenicol, cloramphenicol]
- MIC [1, 3]: 8 µg/mL (≈ 24.8 µM)
- MIC ([1]; Strain 52 VISA): 8 µg/mL (≈ 24.8 µM)
- MIC Range ([1]; VISA (2) Met-R): 8 µg/mL (≈ 24.8 µM)
- % susceptible at breakpoint ([1]; VISA (2) Met-R, NCCLS (1999) breakpoints): 100%
- MIC Range ([2]; S. aureus (50) Met-R): 4 to 64 µg/mL
- % susceptible at breakpoint ([2]; S. aureus (50) Met-R, NCCLS (1999) breakpoints): 66%
- MIC ([2]; Strain 1, Cip, Clin, Gm): 4 µg/mL (≈ 12.4 µM)
- MIC ([2]; Strain 2, Clin, Fos): 64 µg/mL (≈ 198 µM)
- MIC ([2]; Strain 3, Cip, Clin, Gm): 4 µg/mL (≈ 12.4 µM)
- MIC ([2]; Strain 4, Cip, Gm): 4 µg/mL (≈ 12.4 µM)
- MIC ([2]; Strain 5, Cip, Clin): 64 µg/mL (≈ 198 µM)
- MIC ([2]; Strain 6, Clin, Gm): 64 µg/mL (≈ 198 µM)
- MIC ([2]; Strain 7, Cip, Gm): 8 µg/mL (≈ 24.8 µM)
- MIC ([2]; Strain 8, Cip, Clin): 64 µg/mL (≈ 198 µM)
- MIC ([2]; Strain 9, Cip, Clin, Gm): 8 µg/mL (≈ 24.8 µM)
- MIC ([2]; Strain 10, Cip, Clin, Gm): 4 µg/mL (≈ 12.4 µM)
- MIC ([2]; Strain 11, Clin, Rif): 64 µg/mL (≈ 198 µM)
- MIC ([2]; Strain 12, Cip, Clin): 64 µg/mL (≈ 198 µM)
- MIC ([2]; Strain 13, Cip, Clin): 8 µg/mL (≈ 24.8 µM)
- MIC ([2]; Strain 14, Clin, Cip): 8 µg/mL (≈ 24.8 µM)
- MIC ([2]; Strain 15, Cip, Clin, Gm): 8 µg/mL (≈ 24.8 µM)
- MIC ([2]; Strain 16, Cip, Clin): 8 µg/mL (≈ 24.8 µM)
- MIC ([2]; Strain 17, Cip, Clin): 8 µg/mL (≈ 24.8 µM)
- MIC ([2]; Strain 18, Cip, Clin, Gm): 64 µg/mL (≈ 198 µM)
- MIC ([2]; Strain 19, Cip, Clin, Gm): 8 µg/mL (≈ 24.8 µM)
- MIC ([2]; Strain 20, Cip, Clin, Gm): 64 µg/mL (≈ 198 µM)
- MIC ([2]; Strain 21, Cip, Clin, Gm): 64 µg/mL (≈ 198 µM)
- MIC ([2]; Strain 22, Cip, Clin): 8 µg/mL (≈ 24.8 µM)
- MIC ([2]; Strain 23, Cip, Clin, Gm): 64 µg/mL (≈ 198 µM)
- MIC ([2]; Strain 24, Cip, Clin, Gm): 64 µg/mL (≈ 198 µM)
- MIC ([2]; Strain 25, Cip, Clin, Gm): 8 µg/mL (≈ 24.8 µM)
- MIC ([2]; Strain 26, Cip, Clin, Fos, Gm): 8 µg/mL (≈ 24.8 µM)
- MIC ([2]; Strain 27, Cip, Clin, Fos, Gm): 8 µg/mL (≈ 24.8 µM)
- MIC ([2]; Strain 28, Cip, Clin, Gm): 64 µg/mL (≈ 198 µM)
- MIC ([2]; Strain 29, Clin, Fos): 8 µg/mL (≈ 24.8 µM)
- MIC [2, 4]: 8 µg/mL (≈ 24.8 µM)
- MIC ([2]; Strain 31, Cip, Clin, Fox, Gm): 8 µg/mL (≈ 24.8 µM)
- MIC [2, 5]: 64 µg/mL (≈ 198 µM)
- MIC ([2]; Strain 33, Cip, Clin, Gm): 64 µg/mL (≈ 198 µM)
- MIC ([2]; Strain 34, Cip, Clin, Gm): 64 µg/mL (≈ 198 µM)
- MIC ([2]; Strain 35, Cip, Clin, Gm): 8 µg/mL (≈ 24.8 µM)
- MIC ([2]; Strain 36, Cip, Clin, Fos): 8 µg/mL (≈ 24.8 µM)
- MIC ([2]; Strain 37, Cip, Clin, Fos, Gm): 8 µg/mL (≈ 24.8 µM)
- MIC ([2]; Strain 38, Cip, Gm): 8 µg/mL (≈ 24.8 µM)
- MIC ([2]; Strain 39, Cip, Clin, Fos, Gm): 8 µg/mL (≈ 24.8 µM)
- MIC ([2]; Strain 40, Cip, Clin, Gm): 8 µg/mL (≈ 24.8 µM)
- MIC ([2]; Strain 41, Cip, Clin): 8 µg/mL (≈ 24.8 µM)
- MIC ([2]; Strain 42, Cip, Clin, Gm): 8 µg/mL (≈ 24.8 µM)
- MIC ([2]; Strain 43, Cip, Clin, Gm): 8 µg/mL (≈ 24.8 µM)
- MIC [2, 6]: 8 µg/mL (≈ 24.8 µM)
- MIC [2, 7]: 8 µg/mL (≈ 24.8 µM)
- MIC ([2]; Strain 46, Clin, Fos): 8 µg/mL (≈ 24.8 µM)
- MIC ([2]; Strain 47, Cip, Clin, Gm): 8 µg/mL (≈ 24.8 µM)
- MIC ([2]; Strain 48, Cip, Clin): 64 µg/mL (≈ 198 µM)
- MIC ([2]; Strain 49, Cip, Gm): 8 µg/mL (≈ 24.8 µM)
- MIC [2, 8]: 64 µg/mL (≈ 198 µM)
- MIC50 ([2]; S. aureus (50) Met-R): 8 µg/mL (≈ 24.8 µM)
- MIC90 ([2]; S. aureus (50) Met-R): 64 µg/mL (≈ 198 µM)

Structure (SMILES): CC[C@H]1OC(=O)[C@H](C)[C@@H](O[C@H]2C[C@@](C)(OC)[C@@H](O)[C@H](C)O2)[C@H](C)[C@@H](O[C@@H]2O[C@H](C)C[C@H](N(C)C)[C@H]2O)[C@](C)(O)C[C@@H](C)C(=O)[C@H](C)[C@@H](O)[C@]1(C)O [Erythromycin, erythromycin]
- MIC [1, 3]: > 64 µg/mL
- MIC ([1]; Strain 52 VISA): >64 µg/mL
- MIC Range ([1]; VISA (2) Met-R): >64 µg/mL
- MIC ([2]; Strain 1, Cip, Clin, Gm): > 64 µg/mL
- MIC ([2]; Strain 2, Clin, Fos): > 64 µg/mL
- MIC ([2]; Strain 3, Cip, Clin, Gm): > 64 µg/mL
- MIC ([2]; Strain 4, Cip, Gm): > 64 µg/mL
- MIC ([2]; Strain 5, Cip, Clin): > 64 µg/mL
- MIC ([2]; Strain 6, Clin, Gm): > 64 µg/mL
- MIC ([2]; Strain 7, Cip, Gm): > 64 µg/mL
- MIC ([2]; Strain 8, Cip, Clin): > 64 µg/mL
- MIC ([2]; Strain 9, Cip, Clin, Gm): > 64 µg/mL
- MIC ([2]; Strain 10, Cip, Clin, Gm): > 64 µg/mL
- MIC ([2]; Strain 11, Clin, Rif): > 64 µg/mL
- MIC ([2]; Strain 12, Cip, Clin): > 64 µg/mL
- MIC ([2]; Strain 13, Cip, Clin): > 64 µg/mL
- MIC ([2]; Strain 14, Clin, Cip): > 64 µg/mL
- MIC ([2]; Strain 15, Cip, Clin, Gm): > 64 µg/mL
- MIC ([2]; Strain 16, Cip, Clin): > 64 µg/mL
- MIC ([2]; Strain 17, Cip, Clin): > 64 µg/mL
- MIC ([2]; Strain 18, Cip, Clin, Gm): > 64 µg/mL
- MIC ([2]; Strain 19, Cip, Clin, Gm): > 64 µg/mL
- MIC ([2]; Strain 20, Cip, Clin, Gm): > 64 µg/mL
- MIC ([2]; Strain 21, Cip, Clin, Gm): > 64 µg/mL
- MIC ([2]; Strain 22, Cip, Clin): > 64 µg/mL
- MIC ([2]; Strain 23, Cip, Clin, Gm): > 64 µg/mL
- MIC ([2]; Strain 24, Cip, Clin, Gm): > 64 µg/mL
- MIC ([2]; Strain 25, Cip, Clin, Gm): > 64 µg/mL
- MIC ([2]; Strain 26, Cip, Clin, Fos, Gm): > 64 µg/mL
- MIC ([2]; Strain 27, Cip, Clin, Fos, Gm): > 64 µg/mL
- MIC ([2]; Strain 28, Cip, Clin, Gm): > 64 µg/mL
- MIC ([2]; Strain 29, Clin, Fos): > 64 µg/mL
- MIC [2, 4]: > 64 µg/mL
- MIC ([2]; Strain 31, Cip, Clin, Fox, Gm): > 64 µg/mL
- MIC [2, 5]: > 64 µg/mL
- MIC ([2]; Strain 33, Cip, Clin, Gm): > 64 µg/mL
- MIC ([2]; Strain 34, Cip, Clin, Gm): > 64 µg/mL
- MIC ([2]; Strain 35, Cip, Clin, Gm): > 64 µg/mL
- MIC ([2]; Strain 36, Cip, Clin, Fos): > 64 µg/mL
- MIC ([2]; Strain 37, Cip, Clin, Fos, Gm): 64 µg/mL (≈ 87.2 µM)
- MIC ([2]; Strain 38, Cip, Gm): > 64 µg/mL
- MIC ([2]; Strain 39, Cip, Clin, Fos, Gm): 64 µg/mL (≈ 87.2 µM)
- MIC ([2]; Strain 40, Cip, Clin, Gm): > 64 µg/mL
- MIC ([2]; Strain 41, Cip, Clin): > 64 µg/mL
- MIC ([2]; Strain 42, Cip, Clin, Gm): > 64 µg/mL
- MIC ([2]; Strain 43, Cip, Clin, Gm): > 64 µg/mL
- MIC [2, 6]: > 64 µg/mL
- MIC [2, 7]: > 64 µg/mL
- MIC ([2]; Strain 46, Clin, Fos): > 64 µg/mL
- MIC ([2]; Strain 47, Cip, Clin, Gm): > 64 µg/mL
- MIC ([2]; Strain 48, Cip, Clin): > 64 µg/mL
- MIC ([2]; Strain 49, Cip, Gm): > 64 µg/mL
- MIC [2, 8]: > 64 µg/mL
- MIC50 ([2]; S. aureus (50) Met-R): > 64 µg/mL
- MIC90 ([2]; S. aureus (50) Met-R): > 64 µg/mL

— patent publication US6589993B2, “Treating vancomycin-intermediates and multiresistant staphylococci infection with thiamphenicol or a salt thereof” (Zambon Group S.p.A., priority 2000, dated 2003)
